In BindingDB's records for doi:10.1021/jm060732n (Mcgill University, 2006):
pKi: −log10 of the molar value.

Test: Inhibition of Enterococcus faecium AAC(6')Ii

SMILES | pKi
CC(C)(COP(=O)(O)OP(=O)(O)OC[C@H]1O[C@@H](n2cnc3c(N)ncnc32)[C@H](O)[C@@H]1OP(=O)(O)O)[C@@H](O)C(=O)NCCC(=O)NCCSCCCCC(=O)NC[C@H]1O[C@H](O[C@H]2[C@H](O)[C@@H](O)[C@H](N)C[C@@H]2N)[C@H](N)[C@@H](O)[C@@H]1O [[(2R,3S,4R,5R)-5-(6-amino-9H-purin-9-yl)-4-hydroxy-3-(phosphonatooxy)oxolan-2-yl]methyl {[(3R)-3-({2-[(2-{[4-({[(2R,3S,4R,5R,6R)-5-amino-6-{[(1R,2R,3S,4R,6S)-4,6-diamino-2,3-dihydroxycyclohexyl]oxy}-3,4-dihydroxyoxan-2-yl]methyl}carbamoyl)butyl]sulfanyl}ethyl)carbamoyl]ethyl}carbamoyl)-3-hydroxy-2,2-dimethylpropylphosphonato]oxy}phosphonate] | 5.10
CC(C)(COP(=O)(O)OP(=O)(O)OC[C@H]1O[C@@H](n2cnc3c(N)ncnc32)[C@H](O)[C@@H]1OP(=O)(O)O)[C@@H](O)C(=O)NCCC(=O)NCCSCC(=O)NC[C@H]1O[C@H](O[C@H]2[C@H](O)[C@@H](O[C@H]3O[C@H](CO)[C@@H](O)[C@H](O)[C@H]3O[C@@H]3O[C@H](CO)[C@@H](O)[C@H]3O)[C@H](N)C[C@@H]2N)[C@H](N)[C@@H](O)[C@@H]1O [truncated aminoglycoside-coenzyme A bisubstrate analogue 3] | 6.92
CC(C)(COP(=O)(O)OP(=O)(O)OC[C@H]1O[C@@H](n2cnc3c(N)ncnc32)[C@H](O)[C@@H]1OP(=O)(O)O)[C@@H](O)C(=O)NCCC(=O)NCCSCCCC(=O)NC[C@H]1O[C@H](O[C@H]2[C@H](O)[C@@H](O)[C@H](N)C[C@@H]2N)[C@H](N)[C@@H](O)[C@@H]1O [truncated aminoglycoside-coenzyme A bisubstrate analogue 1c] | 6.79

These reach a higher pKi. Values come first.

pKi | SMILES
6.96 | CC(C)(COP(=O)(O)OP(=O)(O)OC[C@H]1O[C@@H](n2cnc3c(N)ncnc32)[C@H](O)[C@@H]1OP(=O)(O)O)[C@@H](O)C(=O)NCCC(=O)NCCSCC(=O)NC[C@H]1O[C@H](O[C@H]2[C@H](O)[C@@H](O[C@H]3O[C@H](CO)[C@@H](O)[C@H](N)[C@H]3O)[C@H](N)C[C@@H]2N)[C@H](O)[C@@H](O)[C@@H]1O
7.12 | CC(C)(COP(=O)(O)OP(=O)(O)OC[C@H]1O[C@@H](n2cnc3c(N)ncnc32)[C@H](O)[C@@H]1OP(=O)(O)O)[C@@H](O)C(=O)NCCC(=O)NCCSCC(=O)NC[C@H]1O[C@H](O[C@H]2[C@H](O)[C@@H](O)[C@H](N)C[C@@H]2N)[C@H](N)[C@@H](O)[C@@H]1O [[(2R,3S,4R,5R)-5-(6-amino-9H-purin-9-yl)-4-hydroxy-3-(phosphonatooxy)oxolan-2-yl]methyl {[(3R)-3-({2-[(2-{[({[(2R,3S,4R,5R,6R)-5-amino-6-{[(1R,2R,3S,4R,6S)-4,6-diamino-2,3-dihydroxycyclohexyl]oxy}-3,4-dihydroxyoxan-2-yl]methyl}carbamoyl)methyl]sulfanyl}ethyl)carbamoyl]ethyl}carbamoyl)-3-hydroxy-2,2-dimethylpropylphosphonato]oxy}phosphonate]
7.37 | CC(C)(COP(=O)(O)OP(=O)(O)OC[C@H]1O[C@@H](n2cnc3c(N)ncnc32)[C@H](O)[C@@H]1OP(=O)(O)O)[C@@H](O)C(=O)NCCC(=O)NCCSCCC(=O)NC[C@H]1O[C@H](O[C@H]2[C@H](O)[C@@H](O)[C@H](N)C[C@@H]2N)[C@H](N)[C@@H](O)[C@@H]1O [truncated aminoglycoside-coenzyme A bisubstrate analogue 1b]
